Data published in patent US20020019389A1, “Urea derivative useful as an anti-cancer agent and process for preparing same” (priority 2000, published 2002).
≈ marks a conversion by molar mass, not a printed value. Read-outs that look alike come from different tables or passages of the source.

Experiments:
Assay type in all cases: cell-based
[1] = system: HCT116 (rectal cancer) cell line; assay: Anti-cancer activity in vitro, HCT116 cell line
Description: (§1) The anti-cancer activity and toxicity of the compound according to the present invention were evaluated in vitro using A549 (lung cancer), SUN638 (gastric cancer), HCT116 (rectal cancer), and A431 (ovarian cancer) cell lines. The above four (4) cell lines were purchased from Cancer Research Institute, Seoul National University College of Medicine. […] The experiment was basically carried out according to the process described in Monks, A., et al, Journal of National Cancer Institute. 83: 757-766 (1991) and the results are represented in the following Tables 2 and 3.

[2] = system: A431 (ovarian cancer) cell line; assay: Anti-cancer activity in vitro, A431 cell line; conditions: A431 Cell Line
Description: as §1

[3] = system: A549 (lung cancer) cell line; assay: Anti-cancer activity in vitro, A549 cell line
Description: as §1

[4] = system: SUN638 (gastric cancer) cell line; assay: Anti-cancer activity in vitro, SUN638 cell line
Description: as §1

[5] = Homo sapiens, HCT-116, read-out: LC50
[6] = Homo sapiens, A549, read-out: LC50
[7] = Homo sapiens, A549 Cell Line, read-out: GI50
[8] = SUN638 Cell Line, read-out: GI50

| SMILES | GI50 ([1]; HCT116 Cell Line) [µg/mL] | LC50 ([1]; HCT116 Cell Line) [µg/mL] | TGI50 ([1]; HCT116 Cell Line) [µg/mL] | GI50 ([3]; A549 Cell Line) [µg/mL] | LC50 ([3]; A549 Cell Line) [µg/mL] | TGI50 ([3]; A549 Cell Line) [µg/mL] | GI50 ([4]; SUN638 Cell Line) [µg/mL] | LC50 ([4]; SUN638 Cell Line) [µg/mL] | TGI50 ([4]; SUN638 Cell Line) [µg/mL] | GI50 ([1]; Homo sapiens, HCT-116) [µg/mL] | LC50 [1, 5] [µg/mL] | GI50 ([3]; Homo sapiens, A549) [µg/mL] | LC50 [3, 6] [µg/mL] | GI50 [4] [µg/mL] | LC50 ([4]; read-out: LC50) [µg/mL] | also measured |
| --- | --- | --- | --- | --- | --- | --- | --- | --- | --- | --- | --- | --- | --- | --- | --- | --- |
| COc1cc2c(cc1OC)C(c1ccccc1)CN(C(=S)n1ccnc1)CC2 (centres unmarked) [Compound 67, 3-[(1H-imidazol-1-yl)thiocarbonyl]-7,8-dimethoxy-1-phenyl-2,3,4,5-tetrahydro-3H-benzazepine] | 0.23 (≈ 0.584 µM) | >100 | 13.48 | 0.66 (≈ 1.68 µM) | >100 | 17.78 | 1.51 (≈ 3.84 µM) | >100 | 8.12 |  |  |  |  |  |  | GI50 [2]: 0.70 µg/mL (≈ 1.78 µM); LC50 [2]: >100 µg/mL; TGI50 [2]: 30.19 µg/mL |
| COc1cc(OC)cc(N2CCN(C(=O)n3ccnc3)CC2)c1 [Compound 58, 1-[(1H-imidazol-1-yl)carbonyl]-4-(3,5-dimethoxyphenyl) piperazine] |  |  |  |  |  |  |  |  |  | 0.66 (≈ 2.09 µM) | > 100 | 2.75 (≈ 8.69 µM) | > 100 | 2.39 (≈ 7.55 µM) | > 100 |  |
| C=C(C)CN(CC)c1nc(N2CCN(C(=O)n3ccnc3)CC2)nc(N(CC)CC(=C)C)n1 [Compound 63, 1-[(1H-imidazol-1-yl)carbonyl]-4-{4,6-bis-[ethyl-(2-methylallyl)amino]-[1,3,5]triazin-2-yl}piperazine] |  |  |  |  |  |  |  |  |  | 1.77 (≈ 3.9 µM) | > 100 | 2.23 (≈ 4.92 µM) | > 100 | 1.81 (≈ 3.99 µM) | > 100 |  |
| COc1cc2c(cc1OC)[C@H](c1ccccc1)CN(C(=O)n1ccnc1)CC2 [Compound 69, 3-[(1H-imidazol-1-yl)carbonyl]-(S)-7,8-dimethoxy-1-phenyl-2,3,4,5-tetrahydro-3H-benzazepine] | 0.13 (≈ 0.344 µM) | >100 | 10.71 | 0.36 (≈ 0.954 µM) | >100 | 97.72 | 0.13 (≈ 0.344 µM) | >100 | 3.63 |  |  |  |  |  |  |  |
| COc1cc2c(cc1OC)[C@@H](c1ccccc1)CN(C(=O)n1ccnc1)CC2 [Compound 68, 3-[(1H-imidazol-1-yl)carbonyl]-(R)-7,8-dimethoxy-1-phenyl-2,3,4,5-tetrahydro-3H-benzazepine] | 0.24 (≈ 0.636 µM) | >100 | 10.96 | 0.23 (≈ 0.609 µM) | >100 | 100 | 0.22 (≈ 0.583 µM) | >100 | 97.72 |  |  |  |  |  |  |  |
| O=C(N1CCC(c2ccccc2)(c2ccccc2)CC1)n1ccnc1 [Compound 80, 1-[(1H-imidazol-1-yl)carbonyl]-4,4-diphenyl-piperidine] |  |  |  |  |  |  |  |  |  | 1.47 (≈ 4.44 µM) | > 100 | 1.38 (≈ 4.16 µM) | > 100 | 1.62 (≈ 4.89 µM) | > 100 |  |
| COc1nc2ccccc2nc1NC(=O)N1CCC(c2ccccc2)(c2ccccc2)CC1 [Compound 16, 1-[N-(2-methoxyquinoxalin-3-yl)aminocarbonyl]-4,4-diphenyl-piperidine] |  |  |  |  |  |  |  |  |  |  |  |  | > 100 |  | > 100 | GI50 [3, 7]: 1.02 µg/mL (≈ 2.33 µM); GI50 [4, 8]: 0.15 µg/mL (≈ 0.342 µM) |
| C=CCN(CC=C)c1nc(N(CC=C)CC=C)nc(N2CCN(C(=O)Nc3nc4ccccc4nc3OC)CC2)n1 [Compound 53] |  |  |  | 2.75 (≈ 4.94 µM) | >100 | 8.91 | 2.18 (≈ 3.92 µM) | >100 | 5.49 |  |  |  |  |  |  |  |
| O=C(NC(c1ccccc1)c1ccccc1)N1CCC(c2ccccc2)(c2ccccc2)CC1 [Compound 17, 1-[N-(diphenylmethyl)aminocarbonyl]-4,4-diphenyl-piperidine] |  |  |  |  |  |  |  |  |  |  |  |  | > 100 |  | > 100 | GI50 [3, 7]: 6.45 µg/mL (≈ 14.4 µM); GI50 [4, 8]: 0.63 µg/mL (≈ 1.41 µM) |
| Cc1cc(C)cc(N2CCN(C(=O)Nc3nc4ccccc4[n+]([O-])n3)CC2)c1 [Compound 28, 1-[(benzo-1,2,4-triazin-1-N-oxide-3-yl)aminocarbonyl]-4-(3,5-dimethylphenyl)piperazine] |  |  |  | 1.31 (≈ 3.46 µM) | >100 | 34.67 | 1.99 (≈ 5.26 µM) | >100 | 7.07 |  |  |  |  |  |  |  |
